Reference: patent US7495105B2, “Non-racemic mixtures of (S) and (R) enantiomers of N-(2,6-dimethylphenyl)-1-propyl-2-piperidinocarboxamide; related processes and pharmaceutical compositions” (Cristalia Produtos Quimicos Farmaceuticos Ltda., priority 2001, dated 2009)
Marks after values point to notes of the source that are not given here.

Legend:
[1] = tested on: Muscular Activity of the Gastrocnemic Muscle of the Rat; assay: Study in motor nervous conduction: gastrocnemius muscle shocks induced by electrical stimulation of the sciatic nerve; format: in vivo; conditions: for IC50 (%) - concentration that inhibits 50% of the amplitude of muscular shocks: 0.1 ml applied to sciatic nerve, stimulation 0.2 Hz, anesthetized Wistar rats; for Power relative to S (−) ropivacaine: from IC50 of gastrocnemic muscle shocks
Protocol: Wistar male rats, weighing from 180 up to 250 g were under anesthesia with sodium pentobarbital (50 mg.kg^1) via i.p. After being submitted to tracheotomy and mechanically ventilated (Harvad Apparatus mod. 681), the animals were positioned on a surgical table (C. F. Palmer), on ventral decubital, and the four paws were fixed onto the surgical table. In the posterior face and near the back paw, the sciatic nerve was carefully dissected on both paws. A pair of platinum electrodes was fixed on the portion near the nerve and connected to a stimulator Grass mod.S88. Thereafter, the Achilles tendon was isolated and fixed to the isometric tension transducer (Grass FT03) by means of a metallic rod. […] 7). The body temperature was constant during the experiment. After stabilization of the preparation, the muscular shocks were registered in the absence (salty) and in the presence of increasing doses of LAs added in the proximity of the nerve. For each test, the anesthetic that socked the nerve was of 0.1 ml. The solutions were solved in physiologic serum at 0.9%, currently the experiment is maintained at 37° C. temperature.
Particularly, in this register, ropivacaine (S(−)ropi) and the non-racemic mixture (25R:75S) were administered in the perineural region. It should be noted the difference in the power and speed action between the anesthetic. In this figure, gastrocnemic shocks of the muscle were induced by electrical stimulation of the sciatic nerve. The segment of this nerve situated in the distal portion to the stimulation electrodes was soaked with 0.1 ml ropivacaine or with the non-racemic mixture of ropivacaine […] in the concentration of 0.06%. The reduction of the amplitude of the muscular shocks is a function of the number of nervous motor fibers under effective action of the anesthetics.
The concentration that inhibits 50% of the amplitude of muscular shocks (IC50) seeks is used for comparative purposes of the power between anesthetics.

[2] = tested on: isolated heart of the rat; assay: Effects in the electrical activity (ECG) in isolated heart of the rat (Langendorff modified); conditions: for cardiac toxicity (cardiotoxicity) in relation to ropivacaine: conclusion from isolated rat heart
Description: In the experiments “in vitro”, adult male Wistar rats were used, weighing from 200 up to 350 g. The animals were slaughtered under anesthesia with ethyl ether. Thereafter, the heart was quickly removed and immersed, at room temperature, on Tyrode solution, composed in mM: NaCl, 120; KCl, 5.4; MgCl2, 1.2; CaCl2, 1.25; NaH2PO4, 2.0; NaHCO3, 27; Glucose, 11. The pH of this solution was adjusted to 7.4±0.02, under bubbling with carbogenic mixture (95% of O2 and 5% of CO2).
The heart was fixed, through the aorta, to a metallic tube and the latter was connected to a peristaltic pump (Milan^R). In order to maintain the feasibility of the preparation, the heart was perfused with a Tyrode solution at a flow of 8 ml.min^−1 maintained at 37° C. The drugs tested were diluted in the perfusion solution in the desired concentration. Thereafter, the heart was immersed in a recipient containing 150 ml of Tyrode solution maintained at 37° C. For registration of the ECG, three pipettes (electrodes), filled in with KCl 1M were positioned inside the chamber, the nearest possible to the heart. The electrical signals generated by the heart were amplified (Amplifier type 3A9) and registered in polygraph (Gould Brush mod.2400). After stabilization of the preparation, the experimental protocol with the infusion of ALs in crescent concentrations (0.1 a 10 μM), at intervals of 5 minutes between them, was started. The heart was perfused during 5 minutes for each concentration. Only one drug was tested for each heart.
The ECG was continuously registered in the absence (control) and in the presence of drugs for analysis. After the infusion of the last concentration, the preparation was washed during 30 minutes with the Tyrode solution without the AL, aiming to evaluate the reversibility of the effect of the drug.

[3] = spinal anesthesia; Gautier et al. 1999; cited from earlier work
[4] = 0.1 to 10 μM, 6 experiments, FIG. 4

Row | SMILES | IC50 (%) - concentration that inhibits 50% of the amplitude of muscular shocks [1] | Power relative to S (−) ropivacaine [1] | effect on CF (cardiac frequency) [2, 4] | effect on PR interval [2, 4] | cardiac toxicity (cardiotoxicity) in relation to ropivacaine [2] | effect on ECG of isolated heart ([2]; perfusion with 1 μM) | power (motor blocking) greater in comparison with ropivacaine ([1]; motor blocking, versus pure ropivacaine) [%] | less potent than racemic bupivacaine [3] | effect on PR interval ([2]; even in the concentration of 10 μM)
1 | CCCN1CCCC[C@@H]1C(=O)Nc1c(C)cccc1C [R (+) Ropi, (R)-N-(2,6-dimethylphenyl)-1-propyl-2-piperidinocarboxamide] | 0.043* % | 1.63* | greater depressors effect of CF | increase in PR interval | significantly higher cardiotoxicity | important blocking of the cardiac vessel |  |  | 
2 | CCCN1CCCCC1C(=O)Nc1c(C)cccc1C (racemic) [RS (±) Ropi, (R,S)-N-(2,6-dimethylphenyl)-1-propyl-2-piperidinocarboxamide] | 0.036* % | 1.94* | greater depressors effect of CF | increase in PR interval | significantly higher cardiotoxicity |  | ~90 |  | 
3 | CCCN1CCCC[C@H]1C(=O)Nc1c(C)cccc1C [S (−) Ropi, (S)-N-(2,6-dimethylphenyl)-1-propyl-2-piperidinocarboxamide] | 0.070% | 1.0 |  |  |  |  |  | about 50% | do not alter the PR interval
